Measured values: patent publication US20260138976A1 (Hoffmann-La Roche Inc., priority 2022, published 2026)

Test system: primary human T-cells
Assay: Proliferation assay (5 days, CellTiter-Glo, CD3-stimulated T-cells)
Type: cell-based
Conditions: for Emax proliferation (% activation): CD3 condition, normalised to DMSO (neutral) and 20 μM reference compound A1 = 100%; for EC50: Homo sapiens, T-cell, 120 h, CD3-stimulated primary human T-cells, 5 days, CellTiter-Glo, fitted sigmoidal curve, read-out: Tcell Proliferation CD3 EC50
How it was run: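 Proliferation read-out: ATP luminescence (CellTiter-Glo 2.0) at day 5 in expanded primary human T-cells on CD3 antibody-coated plates, with PBS-only plates as a counter screen. Compounds in 5–6 pt series (factor 3.333, top 20 or 10 μM final). Values are normalized to DMSO (neutral) and 20 μM reference A1 (100%), from sigmoidal fits.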

Compound	Emax proliferation (% activation)	EC50 [nM]
N[C@H]1CS(=O)(=O)c2ccc(-c3nnc(N4CCC(F)(F)CC4)o3)cc2N(Cc2ccc(-c3nnc(C(F)(F)F)o3)cc2)C1=O [Example 71, (3R)-3-amino-7-[5-(4,4-difluoro-1-piperidyl)-1,3,4-oxadiazol-2-yl]-1,1-dioxo-5-[[4-[5-(trifluoromethyl)-1,3,4-oxadiazol-2-yl]phenyl]methyl]-2,3-dihydro-1λ^6,5-benzothiazepin-4-one]	129	2870
CC1(Nc2nnc(-c3ccc4c(c3)N(Cc3ccc(-c5noc(C(F)(F)F)n5)cc3)C(=O)[C@@H](N)CS4(=O)=O)o2)CC(F)(F)C1 [Example 72, (3R)-3-amino-7-[5-[(3,3-difluoro-1-methyl-cyclobutyl)amino]-1,3,4-oxadiazol-2-yl]-1,1-dioxo-5-[[4-[5-(trifluoromethyl)-1,2,4-oxadiazol-3-yl]phenyl]methyl]-2,3-dihydro-1λ^6,5-benzothiazepin-4-one]	252	1650
N[C@H]1CS(=O)(=O)c2ccc(-c3nnc(N4CCOC(C(F)(F)F)C4)o3)cc2N(Cc2ccc(-c3ccc(C(F)(F)F)cc3)cc2)C1=O (stereo partly drawn) [Example 73, (3R)-3-amino-1,1-dioxo-7-[5-[2-(trifluoromethyl)morpholin-4-yl]-1,3,4-oxadiazol-2-yl]-5-[[4-[4-(trifluoromethyl)phenyl]phenyl]methyl]-2,3-dihydro-1λ^6,5-benzothiazepin-4-one]	95	828
N[C@H]1CS(=O)(=O)c2ccc(-c3nnc(N4CCOC(C(F)(F)F)C4)o3)cc2N(Cc2ccc(-c3noc(C(F)(F)F)n3)cc2)C1=O (stereo partly drawn) [Example 74, (3R)-3-amino-1,1-dioxo-7-[5-[2-(trifluoromethyl)morpholin-4-yl]-1,3,4-oxadiazol-2-yl]-5-[[4-[5-(trifluoromethyl)-1,2,4-oxadiazol-3-yl]phenyl]methyl]-2,3-dihydro-1λ^6,5-benzothiazepin-4-one]	148	527
N[C@H]1CS(=O)(=O)c2ccc(-c3nnc(N4CCOC(C(F)(F)F)C4)o3)cc2N(Cc2ccc(-c3ccc(C(F)(F)F)cn3)cc2)C1=O (stereo partly drawn) [Example 75, (3R)-3-amino-1,1-dioxo-7-[5-[2-(trifluoromethyl)morpholin-4-yl]-1,3,4-oxadiazol-2-yl]-5-[[4-[5-(trifluoromethyl)-2-pyridyl]phenyl]methyl]-2,3-dihydro-1λ^6,5-benzothiazepin-4-one]	115	1200
COc1ccc(-c2ccc(CN3C(=O)[C@@H](N)CS(=O)(=O)c4ccc(-c5nnc(N6CCC(F)(F)C6)o5)cc43)cc2)cc1 [Example 76, (3R)-3-amino-7-[5-(3,3-difluoropyrrolidin-1-yl)-1,3,4-oxadiazol-2-yl]-5-[[4-(4-methoxyphenyl)phenyl]methyl]-1,1-dioxo-2,3-dihydro-1λ^6,5-benzothiazepin-4-one]	263	1360
N[C@H]1CS(=O)(=O)c2ccc(-c3nnc(N4CCOC5(CC5)C4)o3)cc2N(Cc2ccc(-c3noc(C(F)(F)F)n3)cc2)C1=O [Example 77]	58	3920
COc1ccc(-c2ccc(CN3C(=O)[C@@H](N)CS(=O)(=O)c4ccc(-c5nnc(N6CCOC(F)(F)C6)o5)cc43)cc2)cc1 [Example 79, (3R)-3-amino-7-[5-(2,2-difluoromorpholin-4-yl)-1,3,4-oxadiazol-2-yl]-5-[[4-(4-methoxyphenyl)phenyl]methyl]-1,1-dioxo-2,3-dihydro-1λ^6,5-benzothiazepin-4-one]	167	989
